Patent US11813275B2, “Pharmaceutical composition, methods for treating and uses thereof” (Boehringer Ingelheim International GmbH, priority 2013, dated 2023)
“Also recorded” adds a separate entry of the source.

Experiments:
[1] = system: superoxide formation in aortic vessels; experiment: DHE staining of aortic cryosections (vascular superoxide formation); assay type: in vivo, Wistar rats; settings: STZ diabetic rats, 7 weeks of treatment
Experimental: (§1) Type I diabetes in Wistar rats (8 weeks old, 250-300 g) are induced by a single i.v. injection of STZ (60 mg/kg). The blood glucose level is measured 3 days after STZ injection (to test whether diabetes was induced) and on the day of sacrifice. One week after injection empagliflozin (SGLT2-i) was administered with drinking water for additional 7 weeks (10 and 30 mg/kg/d p.o.).

[2] = system: leukocyte-derived reactive oxygen species (ROS) in blood; experiment: PDBu/zymosan A-stimulated chemiluminescence, oxidative burst in blood; assay type: in vivo, Wistar rats; settings: PDBu or zymosan A stimulation; STZ diabetic rats, 7 weeks, low (10 mg/kg) or high (30 mg/kg) dose
Experimental: as §1
FIGS. 3-9: Quantification of reactive oxygen species of (ROS) from leukocyte upon stimulation with zymosan A (ZymA). After 7 weeks of treatment, ROS production in blood is reduced either with the low or high dose of empagliflozin to level close to none diabetic animal.

aortic wall = experiment: Aortic wall thickness and collagen content by sirius red staining; assay type: in vivo, Wistar rats; settings: STZ diabetic rats
Experimental: Aortic wall thickness and collagen content were also measured microscopically after sirius red staining. Aortic segments were fixed in parafomaldehyde (4%) and paraffin-embedded. Sirius red staining for vascular fibrosis was performed with paraffin-embedded samples of aortic tissue upon de-paraffination. Afterwards the nuclei were prestained with hemalum. Then samples were stained for 1 hour in 0.1% with Sirius red solution containing saturated picric acid (1.2%). Finally, tissue samples were dehydrated with 70%, 96% and 100% isopropanol and coverslipped with a solution of polymers in xylene. 60-70 measurements were made per sample, n=6-7 animals/groups.
FIGS. 16A and 16B: Microscopic determination of aortic wall thickness and collagen content by sirius red staining of aortic paraffinated sections. Quantification (FIG. 16A) and representative microscope images (FIG. 16B).

[3] = system: STZ-induced diabetes mellitus (Type I) in rat; experiment: Blood glucose and weight gain in STZ-induced type I diabetic rats; assay type: in vivo, Wistar rats; settings: 10 and 30 mg/kg/d p.o. in drinking water for 7 weeks
Experimental: as §1

NADPH oxidase = NADPH oxidase activity in cardiac tissue; assay type: in vivo, Wistar rats; settings: STZ diabetic rats, 7 weeks of treatment
Experimental: as §1

patients with T1D = experiment: Blood pressure, arterial stiffness, HRV and adrenergic mediators in normotensive T1D patients under clamped euglycemia and hyperglycemia; assay type: in vivo, human
Experimental: Blood pressure, arterial stiffness, heart rate variability (HRV) and circulating adrenergic mediators were measured during clamped euglycemia and hyperglycemia in 40 normotensive patients with T1D. Studies were repeated after 8 weeks of empagliflozin (25 mg daily).
Augmentation index (Alx) for the radial and carotid arteries as well as a derived aortic Alx and carotid, radial and femoral pulse wave velocities (PWV) are measured for assessment of arterial stiffness using a SphygmoCor® System (AtCor Medical Inc., Itasca, Ill.).

isolated aortic rings = experiment: Isometric tension recordings of isolated aortic rings (vasorelaxation); assay type: in vivo, Wistar rats
Experimental: as §1
FIG. 2: A: Endothelial dependant vasorelaxation. […] B: Endothelial independent vasorelaxation obtain with glyceryl trinitrate (GTN) a NO donor.

ALDH-2 = experiment: Liver ALDH-2 activity; assay type: in vivo, Wistar rats; settings: STZ diabetic rats, 7 weeks of treatment
Experimental: as §1

[4] = Serum levels of insulin and interferon-gamma in STZ diabetic rats; assay type: in vivo, Wistar rats; settings: 7 weeks of treatment
Experimental: as §1

OC[C@H]1O[C@@H](c2ccc(Cl)c(Cc3ccc(O[C@H]4CCOC4)cc3)c2)[C@H](O)[C@@H](O)[C@@H]1O [empagliflozin, 1-chloro-4-(β-D-glucopyranos-1-yl)-2-[4-((S)-tetrahydrofuran-3-yloxy)-benzyl]-benzene]
oxidative stress / superoxide formation in aortic vessels [1]: reduced oxidative stress
oxidative stress in blood / ROS production from leukocytes [2]: reduced oxidative stress
aortic collagen content (aortic wall): normalized
aortic wall thickness (aortic wall): normalized
blood glucose levels [3]: distinct reduction
NADPH oxidase activity in the cardiac tissue (NADPH oxidase): diminished
carotid-radial pulse wave velocity (patients with T1D; both glycemic conditions, 8 weeks of 25 mg daily, p≤0.0001): decreased significantly
systolic blood pressure (patients with T1D; clamped euglycemia, after 8 weeks of 25 mg daily, before treatment 111±9, p=0.0187): 109±9 mmHg
augmentation index, aortic (derived) (patients with T1D; clamped euglycemia, after 8 weeks of 25 mg daily, before treatment +0.1±13.4, p<0.0001): −6.2±14.3%
augmentation index, carotid (patients with T1D; clamped euglycemia, after 8 weeks of 25 mg daily, before treatment +1.3±17.0, p<0.0001): −5.7±17.0%
augmentation index, radial (patients with T1D; clamped euglycemia, after 8 weeks of 25 mg daily, before treatment −52±16, p<0.0001): −57±17%
blood pressure effects (patients with T1D; clamped hyperglycemia, 8 weeks of 25 mg daily): not significant
carotid-femoral pulse wave velocity (patients with T1D; clamped hyperglycemia, after 8 weeks of 25 mg daily, before treatment 5.7±1.1, p=0.0017): 5.2±0.9 m/s
arterial stiffness (overall conclusion) (patients with T1D; patients with uncomplicated T1D, 8 weeks of 25 mg daily): reduces arterial stiffness
endothelial independent vasorelaxation with GTN: effect on smooth muscle cells (isolated aortic rings; isolated aortic rings after 7 weeks of treatment, glyceryl trinitrate as NO donor): absence of deleterious effect
endothelial function (endothelial dependent vasorelaxation) (isolated aortic rings; isolated aortic rings of STZ diabetic rats after 7 weeks of treatment): normalization of endothelial function; also recorded: improvement of endothelial function
ALDH-2 activity (liver) (ALDH-2): partly restored
insulin level ([4]; STZ diabetic rats): restore insulin level
interferon γ (marker of inflammation) ([4]; elevation in STZ diabetic rats): highly diminished or suppressed
